Test system: LG0703-F948-PDC complex spheroid viability
Assay: Anticancer human tumor LG0703-F948-PDC patient-derived lung adenocarcinoma cell line growth inhibition
Conditions: for IC50: curve of first compound; for viability, T/C: stronger effect = lower value
Text: Multicellular complex tumor spheroid response to LSD1 Inhibitor Iadademstat in combination with a variety of drugs and investigational agents in selected tumor cell lines
The current study was undertaken to assess response to LSD1 inhibitors in combination with standard-of-care drugs and investigational agents in solid tumor complex spheroid models as well as in the K-562 leukemia. Complex spheroids include a stromal component modeled by human endothelial cells (HUVEC) and fibroblasts modeled by human mesenchymal stem cells (MSCs). The concentration ranges selected for each drug and investigational agent were based upon clinically achievable concentrations if the clinical Cmax of the agent was known.
Compounds. The drugs and investigational agents used in this study are listed on Table 1. All of the agents used, including staurosporine (NSC755774) and gemcitabine (NSC613327), were obtained from the Developmental Therapeutics Program, NCI. FDA-approved anticancer drugs are available from the NCI at http://dtp.nci.nih.gov/branches/dscb/oncology_drugset_explanation.html. Drugs and investigational agents were >95% pure by proton nuclear magnetic resonance (NMR) and liquid chromatography/mass spectrometry (LC/MS). Stock solutions were prepared at 400x in DMSO, stored at -70 degrees C, and diluted in fresh medium prior to their use. The final concentration of DMSO in cell culture wells never exceeded 0.25% (v/v). The FDA-approved anticancer drug set is available from the Developmental Therapeutics Program at https://dtp.cancer.gov/organization/dscb/obtaining/available_plates.htm. All drugs and investigational agents were tested over a range starting from a high concentration at or near the clinical Cmax and decreasing in half-log increments. If the clinical Cmax for an agent had not been determined, the highest concentration tested was 10 microM.
Cell Lines. The patient-derived cancer cell (PDC) lines: 292921-168-R-J2-PDC, K24384-001-R-PDC, and 521955-158-R2-J5-PDC pancreatic carcinomas, 556581-035-R-J1 ovarian carcinoma, 324938-238-R-J1-PDC, 855422-203-R-J1-PDC and 883617-216-R-J1-PDC urothelial bladder carcinomas, 743489-274-T-PDC renal cell carcinoma, 138582-R-J1 Merkel cell tumor, K60290-347-R-J1 and K57222-313-R-J1-PDC glioblastomas, 653999-131-R-J2-PDC, LG0703-F948-PDC, and 349418-098-R-PDC non-small cell lung carcinomas, 885512-296-R-J2-PDC, 171881-019-R-J1-PDC breast carcinomas and 186277-243-T-J2-PDC and 233499-124-R-J2-PDC colon carcinomas were obtained from the NCI Patient-Derived Models Repository (PDMR, https://pdmr.cancer.gov). The established cell lines NCI/ADR-RES (RRID:CVCL_14520 and OVCAR-5 (RRID:CVCL_1628) ovarian carcinomas, 786-O (RRID:CVCL_1051) and A498 (RRID:CVCL_A498) renal cell carcinoma, NCI-H211 (ATCC, cat. CRL-5824; RRID:CVCL_1529), NCI-H196 (ATCC, cat. CRL-5823, RRID:CVCL_1509), SW 1271 (ATCC, cat. CRL-2177, RRID:CVCL_1716) and NCI-H1876 (ATCC, cat. CRL-5902, RRID:CVCL_1503) small cell lung carcinomas, MDA-MB-231 (RRID:CVCL_0062) and MDA-MB-468 (RRID:CVCL_0419)breast carcinomas (10-12). Pooled donor human umbilical vein endothelial cells (HUVEC, Lonza, cat. CC-2519) and human mesenchymal stem cells (hMSC, Lonza, cat. PT-2501) were purchased from Lonza (Walkersville, MD).
Cell Culture. All cells were maintained in an incubator at 37 degrees C and 5% CO2 with 95% humidity. The PDC lines were cultured according to standard operating procedures established by the NCI PDMR (https://pdmr.cancer.gov). Briefly all PDCs were thawed and cultured in Matrigel-coated flasks prepared with a working solution of 1X Ham's F-12 nutrient mix, without supplementation (Invitrogen, Waltham, MA, cat. 11765054), 100 U/mL penicillin-streptomycin (Invitrogen, cat. 15140122), and 2.5% Matrigel (Corning Inc., Corning, NY, cat. 354248) for the first three passages. […]

[1] = second compound 0.1 µM, first compound 0.0316 µM
[2] = second compound 0.1 µM, first compound 0.1 µM
[3] = second compound 0.1 µM, first compound 0.316 µM
[4] = second compound 0.1 µM, first compound 1 µM
[5] = second compound 0.316 µM, first compound 0.0316 µM
[6] = second compound 0.316 µM, first compound 0.1 µM
[7] = second compound 0.316 µM, first compound 0.316 µM
[8] = second compound 0.316 µM, first compound 1 µM
[9] = second compound 1 µM, first compound 0.0316 µM
[10] = second compound 1 µM, first compound 0.1 µM
[11] = second compound 1 µM, first compound 0.316 µM
[12] = second compound 1 µM, first compound 1 µM
[13] = second compound 3.16 µM, first compound 0.0316 µM
[14] = second compound 3.16 µM, first compound 0.1 µM
[15] = second compound 3.16 µM, first compound 0.316 µM
[16] = second compound 3.16 µM, first compound 1 µM
[17] = second compound 10 µM, first compound 0.0316 µM
[18] = second compound 10 µM, first compound 0.1 µM
[19] = second compound 10 µM, first compound 0.316 µM
[20] = second compound 10 µM, first compound 1 µM
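Further: spheroids exposed to agents for seven days before readout.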
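Wherever viability, T/C is given: 100% = DMSO vehicle control wells as normalization base.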

For Nc1ncn(C2CC(O)C(CO)O2)c(=O)n1 (stereo not given) + NC1CCC(NC2CC2c2ccccc2)CC1, the IC50 (second compound 0.1 µM) was > 1 µM, the IC50 (second compound 0.316 µM) was > 1 µM and the IC50 (second compound 1 µM) was > 1 µM. For the same compound, the IC50 (second compound 3.16 µM) was > 1 µM, the IC50 (second compound 10 µM) was > 1 µM and the viability, T/C (second compound 0.1 µM, first compound 0.00316 µM) was 101%. The viability, T/C (second compound 0.1 µM, first compound 0.01 µM) was 102%, the viability, T/C [1] was 98% and the viability, T/C [2] was 96.3%. It also gave a viability, T/C [3] of 95.4%, a viability, T/C [4] of 81.9% and a viability, T/C (second compound 0.316 µM, first compound 0.00316 µM) of 114%. For the same compound, the viability, T/C (second compound 0.316 µM, first compound 0.01 µM) was 118%, the viability, T/C [5] was 110% and the viability, T/C [6] was 98.7%. The viability, T/C [7] was 102%, the viability, T/C [8] was 98.5% and the viability, T/C (second compound 1 µM, first compound 0.00316 µM) was 107%. The viability, T/C (second compound 1 µM, first compound 0.01 µM) was 126%, the viability, T/C [9] was 130% and the viability, T/C [10] was 106%. For the same compound, the viability, T/C [11] was 97%, the viability, T/C [12] was 112% and the viability, T/C (second compound 3.16 µM, first compound 0.00316 µM) was 122%. The viability, T/C (second compound 3.16 µM, first compound 0.01 µM) was 121%, the viability, T/C [13] was 117% and the viability, T/C [14] was 111%. For the same compound, the viability, T/C [15] was 131%, the viability, T/C [16] was 101% and the viability, T/C (second compound 10 µM, first compound 0.00316 µM) was 122%. For the same compound, the viability, T/C (second compound 10 µM, first compound 0.01 µM) was 141%, the viability, T/C [17] was 111% and the viability, T/C [18] was 114%. It also gave a viability, T/C [19] of 113% and a viability, T/C [20] of 122%.

For CC1(C)CCC(CN2CCN(c3ccc(C(=O)NS(=O)(=O)c4ccc(NCC5CCOCC5)c([N+](=O)[O-])c4)c(Oc4cnc5[nH]ccc5c4)c3)CC2)=C(c2ccc(Cl)cc2)C1 + NC1CC1c1ccc(-c2cccc(O)c2)cc1, the IC50 (second compound 0.1 µM) was 2.72 µM, the IC50 (second compound 0.316 µM) was 2.47 µM and the IC50 (second compound 1 µM) was 2.64 µM. For the same compound, the IC50 (second compound 3.16 µM) was 2.34 µM, the IC50 (second compound 10 µM) was 2.37 µM and the viability, T/C [1] was 98.2%. For the same compound, the viability, T/C [2] was 113%, the viability, T/C [3] was 111% and the viability, T/C [4] was 98%. For the same compound, the viability, T/C (second compound 0.1 µM, first compound 3.16 µM) was 42.8%, the viability, T/C (second compound 0.1 µM, first compound 10 µM) was 3.56% and the viability, T/C [5] was 102%. The viability, T/C [6] was 103%, the viability, T/C [7] was 100% and the viability, T/C [8] was 103%. For the same compound, the viability, T/C (second compound 0.316 µM, first compound 3.16 µM) was 35.6%, the viability, T/C (second compound 0.316 µM, first compound 10 µM) was 3% and the viability, T/C [9] was 106%. It also gave a viability, T/C [10] of 104%, a viability, T/C [11] of 111% and a viability, T/C [12] of 85.6%. For the same compound, the viability, T/C (second compound 1 µM, first compound 3.16 µM) was 43.8%, the viability, T/C (second compound 1 µM, first compound 10 µM) was 5.17% and the viability, T/C [13] was 104%. The viability, T/C [14] was 81.7%, the viability, T/C [15] was 102% and the viability, T/C [16] was 111%. For the same compound, the viability, T/C (second compound 3.16 µM, first compound 3.16 µM) was 32.5%, the viability, T/C (second compound 3.16 µM, first compound 10 µM) was 3.01% and the viability, T/C [17] was 103%. For the same compound, the viability, T/C [18] was 104%, the viability, T/C [19] was 93.9% and the viability, T/C [20] was 86.4%. The viability, T/C (second compound 10 µM, first compound 3.16 µM) was 38% and the viability, T/C (second compound 10 µM, first compound 10 µM) was 3.13%.
